Results on one compound are retold here after US8481521B2, “Methods of treating cell proliferative disorders” (Rigel Pharmaceuticals, Inc., priority 2005, dated 2013).

A short description of data set [1]: Pharmacokinetics / oral bioavailability in Sprague-Dawley rats. In kind it is in vivo. The protocol:
Prodrug Compound 4 was tested for oral bioavailability. For the study, the prodrug was dissolved in various vehicles (e.g. PEG 400 solution and CMC suspension) for intravenous and oral dosing in the rats. […] Following administration of the prodrug and/or drug, plasma samples were obtained and extracted. The plasma concentrations of the prodrug and/or drug were determined by high performance liquid chromatography/tandem mass spectrometry (LC/MS/MS) methods. Pharmacokinetic analyses were performed based on the plasma concentration data. The pharmacokinetic parameters of interest include Clearance (CL), Volume of distribution at steady-state (Vss), terminal half-life (t1/2), and oral bioavailability (% F).
Referring to FIG. 16, PK profiles are shown for IV and PO administration in Spraque-Dawley rats. For IV administration, Compound 4 was dissolved in PEG-400 and administered at a dose of 1 mg/kg.
FIG. 17 summarizes the PK parameters for the study described in FIG. 4.
FIG. 23 illustrates the absorption of prodrug Compound 4 from different vehicles.

In data set [2] the test system is pErk1/2 and pStat5. Kind of data set: Immunohistochemical staining for pErk1/2 and pStat5 in MV4-11 tumor sections. The conditions noted are these: 40 mg/kg VII, 26 days. In kind it is in vivo. The method, then:
Tumors were harvested from mice ˜2 hours following final dose of vehicle or 40 mg/kg VII.

Data set [3] concerns Flt-3. Kind of data set: Flt-3 phosphorylation in MV4-11 tumor lysates (immunoprecipitation, Western blot). In kind it is in vivo, human. The following applies: 40 mg/kg VII, about two hours after final dose, vs vehicle. The method, then:
Panel A is detection of phosphorylated Flt-3 in MV4-11 tumor lysates from mice approximately two hours after the final dose of VII or vehicle using anti-phosphotyrosine antibody on the left and anti-phospho-Flt-3 specific antibody on the right side of the blot. Additionally, a reprobe of the blot for the total Flt-3 levels are shown in Panel B.
Western blot analysis of phosphorylated Flt-3 was carried out as follows.
3. Weigh and normalize in 250 mg/l ml ice-cold RIPA buffer (Santa Cruz Biotechnology, sc-24948) containing protease inhibitor and phosphotase inhibitor cocktail (Sigma, P5726, 1 ml/100 ml lysis buffer).
Immunoprecipitation. • 1. Take 1 mg tumor lysate and add primary antibody 2 ug (Anti-Flt-3 S18, Santa Cruz, #sc-480) adjust volume to 500 ul with lysis buffer. Incubate with gentle rocking for 1 h at 4° C. • 2. Add protein A/G plus-agarose beads (Santa Cruz, SC-2003) 40 ul. Incubate with gentle rocking for 1 h at RT. • 3. Microcentrifuge for 30 second at 4° C. Wash pellet three times with 500 ul of 1× lysis buffer. Keep on ice during washes. • 4. Resuspend the pellet with 30 ul 2× Tris-Glysine SDS loading buffer+5 ul reducing agent 10× (Invitrogen). • 5. Heat the sample to 95-100° C. for 5 minutes. • 6. Store the sample at −80° C.
Western Blot Procedure. • 1. Load 20 ul of the sample on 8% Tris-Glysine gel. • 2. Run in 1× Tris-glysine SDS running buffer. • 3. […]
(In general: Immunoblotting shows a protein as a band on a membrane.)

Data set [4] in a line: Stability of prodrug in rat plasma. Format: in vitro ADME. The source says: (§1) Although phosphate-containing prodrugs suitable for oral administration are of interest, skilled artisans will appreciate that prodrugs including phosphate-containing progroups R^P can be administered via other routes of administration, as phosphatases are distributed throughout the body. […] Thus, the only requirement is that the particular phosphate-containing progroup R^P selected should be removable under the conditions of intended use.
The presence of Phosphatase activity in rat plasma was confirmed using p-nitrophenyl phosphate—a known substrate for phosphatase.

Data set [5] can be described thus: Stability under acidic and neutral conditions. The conditions noted are these: 37° C. In kind it is physicochemical.
A short description of data set [6]: Conversion of prodrug to drug in microsome preparations. In kind it is in vitro ADME, rat.
Text: as §1

“Also recorded” adds a separate entry of the source.

As to `COc1cc(Nc2ncc(F)c(Nc3ccc4c(n3)N(COP(=O)(O)O)C(=O)C(C)(C)O4)n2)cc(OC)c1OC` [Compound 4, N4-(2,2-dimethyl-4-[(dihydrogenphosphonoxy)methyl]-3-oxo-5-pyrido[1,4]oxazin-6-yl)-5-fluoro-N2-(3,4,5-trimethoxyphenyl)-2,4-pyrimidinediamine], the “prodrug in plasma after IV administration” value in data set [1] (1 mg/kg IV in PEG-400) was “Rapid disappearance”. Moreover, the “absorption from different vehicles” value in data set [1] (PEG-400, CMC, powder in hard gelatin capsules) is “absorbed equally well”. For the same compound, in data set [1] (PO in PEG-400), the “plasma levels of drug metabolite Compound III after oral prodrug” value is on record as “high levels” and the “prodrug present systemically after oral administration” value is recorded as “no prodrug Compound 4 was present systemically”. For the same compound, the “AUC/dose of drug Compound III exposure” value in data set [1] (oral Compound III 2.5 mg/kg or Compound 4 4 mg/kg in PEG-400) is “nearly identical”. Moreover, in data set [2], the “STATS and ERK1/2 phosphorylation in tumor sections” value was “reduced”. In addition, the “Constitutive phosphorylation of Flt-3 in tumors” value in data set [3] is given as “reduced”. For the same compound, the “stability in rat plasma (hydrolysis to Compound III)” value in data set [4] was “metabolize to the active drug Compound III; also recorded: unstable”. Further, the “stability under acidic and neutral conditions” value in data set [5] is reported as “stable”. The “conversion to drug Compound III in intestinal and hepatic microsomes” value in data set [6] (microsomes from a different source) is listed as “metabolize to the active drug Compound III; also recorded: conversion of Compound 4 to Compound III was observed”. The “conversion to drug Compound III in microsomal preparations” value in data set [6] (preparations obtained from Xenotech) is recorded as “failed to convert”.
